For assay [1], the system named is Coriolus versicolor. As to the kind of experiment: Synergism test (MIC of radial hyphae growth, SI by Kull). It counts as cell-based. The following applies: Trametes versicolor. On the procedure: (§1) Mycelium pieces were punched out of a colony of the wood-destroying fungus in question and incubated on a malt extract/peptone-containing nutrient agar at 26° C. The growth of the hyphae with and without active compound was compared. The minimum inhibitory concentration (MIC) stated was the concentration at which the radial hyphae growth was suppressed completely.
(§2) The synergism was determined using the method described by Kull et al. (F. C. Kull, P. C. Eismann, H. D. Sylvestrowicz, R. L. Mayer, Applied Microbiology 1961, 9, 538-541).

Assay [2] deals with Coniophora puteana. As to the kind of experiment: Inhibition test with giant colonies of wood-destroying basidiomycetes. It counts as cell-based. The note with it: 168 h, 1 ppm active compound, agar, 26° C., about 1 week. On the procedure:
(§3) Mycelium pieces were punched out of colonies of Coniophora puteana, Poria placenta, Lentinus tigrinus, Coriolus versicolor and Gloeophyllum trabeum and incubated on an agar nutrient soil at 26° C. The inhibition of the growth of the hyphae on active compound-comprising nutrient soil was compared to the longitudinal growth without addition of active compound and rated as inhibition in percent (incubation time: about 1 week, depending on the fungal growth of the comparative sample without active compound).

For assay [3], the system named is Coriolus versicolor. The description is as above. It counts as cell-based. The following applies: Trametes versicolor, 168 h; 1 ppm active compound, agar, 26° C., about 1 week. On the procedure:
as §3

Assay [4] deals with Gloeophyllum trabeum. Described as above. It is filed as cell-based. The note with it: 168 h, 1 ppm active compound, agar, 26° C., about 1 week. The protocol: as §3
For assay [5], the system named is Lentinus tigrinus. The description is as above. The following applies: 168 h, 1 ppm active compound, agar, 26° C., about 1 week. It counts as cell-based. The protocol:
as §3

The subject of assay [6] is Poria placenta. The assay is described as above. It counts as cell-based. The note with it: 168 h; 1 ppm active compound, agar, 26° C., about 1 week. The protocol: as §3
For assay [7], the system named is Poria placenta. Nature of the assay: Synergism test (MIC of radial hyphae growth, SI by Kull). It is filed as cell-based. On the procedure:
as §1, §2

Assay [8] deals with Coniophora puteana. Described as above. It is filed as cell-based. On the procedure:
as §1, §2

Assay [9] deals with Lentinus tigrinus. The description is as above. It is filed as cell-based. The following applies: read-out: MIC (ppm) Lentinus tigrinus. On the procedure: as §1, §2
The subject of assay [10] is Stereum sanguinolentum. The description is as above. It is filed as cell-based. The following applies: 2.4 penflufen and tebuconazole, read-out: MIC against Stereum sanguinolentum (ppm). The protocol: as §1, §2
In assay [11] the test system is Gloeophyllum trabeum. The description is as above. It counts as cell-based. The note with it: 2.3 penflufen and copper(II) oxide, read-out: MIC against Gloeophyllum trabeum (ppm). On the procedure:
Mycelium pieces were punched out of a colony of the wood-destroying fungus in question and incubated on a malt extract/peptone-containing nutrient agar at 26° C. […] The minimum inhibitory concentration (MIC) stated was the concentration at which the radial hyphae growth was suppressed completely.

In assay [12] the test system is Poria placenta. As to the kind of experiment: Activity test analogously to EN113 on drenched pine specimens. The following applies: for Loss of mass [%]: pine, 6 weeks, mean of 6 specimens (untreated: 20). The protocol: (§4) Penflufen (I) was tested analogously to the EN113 standard test for activity against wood-destroying fungi. In contrast to the standard test, smaller pieces of wood were used and the pieces of wood were exposed to attack by the fungi for a shorter period of time.
(§5) To this end, dried test specimen (25×15×4 mm) made of pine (Pinus sylvestris) were in each case vacuum-drenched with solutions of penflufen (I) in toluene. From the concentration of penflufen (I) in the drench solution and the uptake of the drench solution into the test specimen, the amount of active compound taken up by the test specimen (retention) was calculated. The test specimens were dried and then weighed. To prevent falsifying colonisation by foreign pathogens, the test specimen were sterilised with y rays.
The test specimen were brought into contact with the wood-destroying organism Poria placenta and stored for 6 weeks. The test pieces of wood were then cleaned, dried and weighed. This was used to calculate the loss of mass. For each retention, the mean of 6 test specimens was determined.

The subject of assay [13] is Coniophora puteana. The description is as above. The note with it: for Loss of mass [%]: pine, 6 weeks, mean of 6 specimens (untreated: 24). The protocol: as §4, §5
The test specimens were brought into contact with the wood-destroying organism Coniophora puteana and stored for 6 weeks. The test pieces of wood were then cleaned, dried and weighed. This was used to calculate the loss of mass. For each retention, the mean of 6 test specimens was determined.

Where [14] appears, read: 2.9 penflufen and bifenthrin, read-out: MIC against Coriolus versicolor (ppm).
The mark [15] stands for this setting: 2.2 penflufen and fenpropimorph, read-out: MIC (ppm) Coniophora puteana.
[16] abbreviates: 2.2 penflufen and fenpropimorph.
Setting [17] is: 2.5 penflufen and propiconazole, read-out: MIC against Coniophora puteana (ppm).
Where [18] appears, read: 2.1 penflufen and thiabendazole, malt extract/peptone agar 26° C., read-out: MIC against Coriolus versicolor (ppm).
Setting [19] is: 2.6 penflufen and permethrin, read-out: MIC against Poria placenta (ppm).
Setting [20] is: result in words, EN113-like test.
[21] abbreviates: retention of penflufen 50 g/m^3.

The values below come from US12604900B2, “Penflufen as a wood preservative against wood- destroying basidiomy cetes” (LANXESS Deutschland GmbH, priority 2010, dated 2026).

Where two headings read alike, the source gives them in different places. Where only a bound is given, the exact number is not on record here.

The MIC is the lowest concentration found to suppress growth. On to `Cc1c(COC(=O)[C@@H]2[C@H](/C=C(\Cl)C(F)(F)F)C2(C)C)cccc1-c1ccccc1` (racemic) [bifenthrin, reference compound], for which, in [1] (setting [14]), the MIC amounted to 60 µg/mL.

Broadly, the inhibition is the change of the read-out against control, counted positive when it falls. A higher inhibition goes with strong suppression. On to `C=C(c1ccccc1NC(=O)c1c(C)nn(C)c1F)C(C)C` [III], for which the inhibition at 1 ppm amounted to 25% in assay [2]; 78% in [3]; 18% in assay [4]; 37% in [5]; 45% in assay [6].

In the case of `CCCC(C)c1ccccc1NC(=O)c1c(C)nn(C)c1F` (stereo not shown) [II], the inhibition at 1 ppm in assay [2] worked out at 12%; in assay [3], 15%; in assay [4] it was 11%; in assay [5], 17%; in assay [6], 3%.

Regarding `CC1(C)C(C=C(Cl)Cl)C1C(=O)OC(C#N)c1cccc(Oc2ccccc2)c1` (stereo not shown) [cypermethrin, reference compound], the minimum inhibitory concentration (MIC) in [1] (read-out: MIC (ppm) Coriolus versicolor) and in assay [7] (read-out: MIC (ppm) Poria placenta) was > 100 µg/mL throughout.

Regarding `CCOc1ccc(C(C)(C)COCc2cccc(Oc3ccccc3)c2)cc1` [etofenprox, reference compound], the MIC in assay [7] (2.7 penflufen and etofenprox, read-out: MIC against Poria placenta (ppm)) is > 100 µg/mL.

For `CC(Cc1ccc(C(C)(C)C)cc1)CN1C[C@@H](C)O[C@@H](C)C1` (stereo partly shown) [fenpropimorph, reference compound], the MIC in assay [8] (setting [15]) and in assay [9] (setting [16]) was 30 µg/mL throughout.

For `Cc1nn(C)c(F)c1C(=O)Nc1ccccc1C(C)CC(C)C` (stereo not shown) [penflufen], the inhibition at 1 ppm in assay [2], in [3], in [4], in [5] and in assay [6] was 100% each time. The MIC in assay [8] (setting [15]) turned out to be 1 µg/mL; in assay [8] (setting [17]) it was 3 µg/mL; in assay [8] (2.8 penflufen and prochloraz, read-out: MIC (ppm) Coniophora puteana), 3 µg/mL; in assay [1] (2.10 penflufen and cypermethrin, read-out: MIC (ppm) Coriolus versicolor) it was 0.1 µg/mL; in [1] (setting [18]), 0.3 µg/mL; in assay [1] (setting [14]) it was 0.1 µg/mL. In addition, the MIC in assay [9] (setting [16]) came out at 0.5 µg/mL; in [9] (2.8 penflufen and prochloraz), 0.3 µg/mL; in [7] (2.10 penflufen and cypermethrin, read-out: MIC (ppm) Poria placenta), 0.1 µg/mL; in assay [7] (setting [19]), 0.1 µg/mL; in assay [10] it was 3 µg/mL; in assay [11], 0.3 µg/mL. Also, the “MIC against Poria placenta (ppm)” value in assay [7] (2.7 penflufen and etofenprox) stood at 0.1 ppm. Besides, the “activity against the wood-destroying fungus Poria placenta” value in [12] (setting [20]) is “very good activity”. Also, the “Loss of mass [%]” value in assay [12] (setting [21]), in assay [12] (retention of penflufen 102 g/m^3), in assay [13] (setting [21]) and in assay [13] (retention of penflufen 103 g/m^3) was 0% in each case. Besides, the “activity against the wood-destroying fungus Coniophora puteana” value in assay [13] (setting [20]) is reported as “very good activity”.

As for `CC1(C)C(C=C(Cl)Cl)C1C(=O)OCc1cccc(Oc2ccccc2)c1` (stereo not shown) [permethrin, reference compound], the MIC in assay [7] (setting [19]) was > 100 µg/mL.

As for `CCCN(CCOc1c(Cl)cc(Cl)cc1Cl)C(=O)n1ccnc1` [prochloraz, reference compound], the MIC in assay [8] (read-out: MIC (ppm) Coniophora puteana) was > 30 µg/mL; in [9], 20 µg/mL.

With `CCCC1COC(Cn2cncn2)(c2ccc(Cl)cc2Cl)O1` (stereo not shown) [propiconazole, reference compound], the MIC in assay [8] (setting [17]) is 3 µg/mL.

As for `CC(C)(C)C(O)(CCc1ccc(Cl)cc1)Cn1cncn1` (stereo not shown) [tebuconazole, reference compound], in assay [10], the minimal inhibitory concentration (MIC) was determined as 6 µg/mL.

On to `c1ccc2[nH]c(-c3cscn3)nc2c1` [thiabendazole, reference compound], for which, in [1] (setting [18]), the MIC worked out at 3 µg/mL.
